Reference: US10668051B2, “Modulators of calcium release-activated calcium channel” (Rhizen Pharmaceuticals SA, priority 2009, dated 2020)
Counter-ions that a name gives are not always drawn.

Experiments:
Format in all cases: cell-based
CRAC channels [1] = target: T1, CRAC channels (Homo sapiens (Human), UniProt Q96D31); experiment: In-vitro CRAC channel inhibition assay in Jurkat cells (thapsigargin-induced calcium influx)
In short: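 Jurkat cells given test compounds in Ca2+/Mg2+-free Hanks buffer for 15 min, then thapsigargin (1 μM final) for 15 min to deplete ER stores. IC50 from percent inhibition of thapsigargin-induced Ca2+ influx.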

CRAC channels [2] = target: T1, CRAC channels; experiment: In-vitro CRAC channel inhibition assay in NCI-H460 cancer cell line (Ca assay); conditions: thapsigargin-induced calcium influx, NCI-H460 cells
Experimental: 1B. In-Vitro CRAC Channel Inhibition Assay in NCI-H460 Cancer Cell Line
Inhibition of CRAC channels was determined following thapsigargin (Sigma, Cat #T9033) induced endoplasmic calcium release in NCI-H460 cells (National Centre For Cell Science (NCCS), Pune).
Cells (30,000 per well) were plated overnight in complete RPMI medium. Medium was substituted with Ca^2+ and Mg^2+ free Hanks buffer and Fluo-8 NW dye (ABD Bioquest, Inc., Sunnyvale, Calif.) loading solution in 96-well black plate. Plate was incubated at 37° C./5% CO2 for 30 min followed by further 15 min incubation at room temperature. Test compounds (DMSO stocks diluted in Ca^2+ and Mg^2+ free Hanks buffer) at desired concentrations were added to the wells and incubated for 15 min. Thapsigargin (1 μM final concentration) was added to the wells and incubated for 15 min to inhibit the Sarco-endoplasmic reticulum Ca^2+ ATPase pump thereby depleting endoplasmic calcium and raising cytosolic calcium concentrations. Store-operated calcium entry was initiated by adding extracellular Ca^2+ to a final concentration of 2.5 mM. Fluorescence was monitored over 30 min on a plate reader (BMG Labtech., Germany) with excitation at 485 nm and an emission wavelength at 520 nm. Data were analyzed using GraphPad Prism. IC50 for each compound was determined based on the percent inhibition of Thapsigargin-induced calcium influx into cells.

[3] = system: NCI-H460 cancer cell line; experiment: In-vitro cell proliferation assay in NCI-H460 cancer cell line (MTT); conditions: Homo sapiens, 48 h; for IC50: read-out: NCI-H460 Cell line assay G1 50 nM
Experimental: 1C. In-Vitro Cell Proliferation Assay in NCI-H460 Cancer Cell Line (Anticancer Activity)
Growth inhibition assays were carried out using 10% FBS supplemented media. Cells were seeded at a concentration of 5000 cells/well in a 96-well plate. Test compound at a concentration range from 0.01 to 10000 nM were added after 24 h. Growth was assessed using the 3-[4,5-dimethylthiazol-2-yl]-2,5-diphenyltetrazolium bromide (MTT) dye reduction test at 0 h (prior to the addition of the test compound) and 48 h after the addition of test compound. Absorbance was read on a Fluostar Optima (BMG Labtech, Germany) at a wave length of 450 nm. Data were analysed using GraphPad Prism. IC-50 for each compound was determined based on the % inhibition due to the test compound compared to the control.
For methods of cell proliferation assay, see, for example, Mosmann. T., Journal of Immunological Methods, 65(1-2), 55-63, (1983).

IL-2 [4] = experiment: Inhibition of cytokine release in Human Whole Blood: IL-2; conditions: Con A + PMA, 20 h, ELISA, read-out: IC 50 Human Whole Blood IL-2
Experimental: (§1) 2. In Vitro Inhibition of Cytokine Release in Jurkat Cells, Human Whole Blood and Peripheral Blood Mononuclear Cells (PBMC).
(§2) Inhibition of cytokine IL-2, IL-4, IL-5 and TNF α was determined as described below. • a. Inhibition of IL-2 in Jurkat cells: Cells were incubated with desired concentrations of the inhibitor for 15 min. Cytokine release was induced by the addition of Concanavalin A (25 μg/ml)+Phorbol Myristate Acetate (50 ng/ml) for IL-2 & TNFα or with Phytohemagglutinin ([…]) for IL-4 & IL-5 and incubated at 37° C. in an atmosphere containing […]. Supernatant was collected after 20 h (IL-2 & TNFα) or 48 h (IL-4 & IL-5) for estimation of cytokines by ELISA. Data were analysed using GraphPad Prism. IC50 values for each compound were determined based on the percent inhibition due to the test compound compared to the control. • b. Inhibition of cytokine release in Human Whole Blood (HWB): Freshly collected HWB was diluted with RPMI medium (1:4.5) and added to a 96-well plate. Wells were incubated with desired concentrations of the inhibitor for 15 min. Cytokine release was induced by the addition of Concanavalin A (25 μg/ml)+Phorbol Myristate Acetate (50 ng/ml) for IL-2 & TNFα or with Phytohemagglutinin (5 μg/ml) for IL-4 & IL-5 and incubated at 37° C. in an atmosphere containing […]. Supernatant was collected after 20 h (IL-2 & TNFα) or 48 h (IL-4 & IL-5) for estimation of cytokines by ELISA. Data were analysed using GraphPad Prism. IC50 values for each compound were determined based on the percent inhibition due to the test compound compared to the control. • c. Inhibition of cytokine release in PBMC: PBMC from freshly collected HWB were isolated by density gradient using Histopaque and seeded in a 96-well plate. Cells were incubated with desired concentrations of the inhibitor for 15 min. Cytokine release was induced by the addition of Concanavalin A (25 μg/ml)+Phorbol Myristate Acetate (50 ng/ml) for IL-2 & TNFα or with Phytohemagglutinin (5 μg/ml) for IL-4 & IL-5 and incubated at 37° C. in an atmosphere containing […]. Supernatant was collected after 20 h (IL-2 & TNFα) or 48 h (IL-4 & IL-5) for estimation of cytokines by ELISA. Data were analysed using GraphPad Prism. IC50 values for each compound were determined based on the percent inhibition due to the test compound compared to the control.

IL-2 [5] = experiment: Inhibition of cytokine release in PBMC: IL-2; conditions: Homo sapiens, Con A + PMA, 20 h, ELISA, read-out: IC 50 PBMC IL-2
Experimental: as §1, §2

T1 sequence (Q96D31 whole entry): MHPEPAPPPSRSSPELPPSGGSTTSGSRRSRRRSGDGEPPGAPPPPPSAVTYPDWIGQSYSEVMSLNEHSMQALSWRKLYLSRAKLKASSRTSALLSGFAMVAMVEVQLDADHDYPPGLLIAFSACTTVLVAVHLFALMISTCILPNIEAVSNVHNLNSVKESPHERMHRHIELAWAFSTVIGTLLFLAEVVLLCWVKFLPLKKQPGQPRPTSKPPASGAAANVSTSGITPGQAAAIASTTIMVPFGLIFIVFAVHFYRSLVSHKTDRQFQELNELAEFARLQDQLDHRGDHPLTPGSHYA

Compound | inhibition at 1 µM (CRAC channels [1]) [%] | inhibition at 10 µM [3] [%] | also measured
Cc1ncsc1C(=O)Nc1ccc(-n2nc(C3CC3)cc2C2CC2)cc1 [Example 2, N-[4-(3,5-dicyclopropyl-1H-pyrazol-1-yl)phenyl]-4-methylthiazole-5-carboxamide] | 100 |  | inhibition at 1 µM (CRAC channels [2]): 100%; IC50 [3]: 197 nM
O=C(Nc1ccc(-n2nc(C3CC3)cc2C2CC2)cc1)c1ccccc1 [Example 6, N-[4-(3,5-dicyclopropyl-1H-pyrazol-1-yl)phenyl]benzamide] | 41.3 | 35 | inhibition at 1 µM (CRAC channels [2]): 86%
O=C(Nc1ccc(-n2nc(C3CC3)cc2C2CC2)cc1)c1cccc(F)c1F [Example 9, N-[4-(3,5-dicyclopropyl-1H-pyrazol-1-yl)phenyl]-2,3-difluorobenzamide] | 98.6 | 14 | inhibition at 1 µM (CRAC channels [2]): 86.8%
O=C(Nc1ccc(-n2nc(C3CC3)cc2C2CC2)cc1)C1(c2ccccc2)CC1 [Example 21, N-[4-(3,5-dicyclopropyl-1H-pyrazol-1-yl)phenyl]-1-phenylcyclopropanecarboxamide] | 78.4 | 41 | 
O=C(Nc1ccc(-n2nc(C(F)(F)F)cc2C2CC2)cc1)c1c(Cl)cncc1Cl [Example 49, 3,5-dichloro-N-{4-[5-cyclopropyl-3-(trifluoromethyl)-1H-pyrazol-1-yl]phenyl}isonicotinamide] | 100 |  | IC50 (IL-2 [4]): 199 nM
Cc1nnsc1C(=O)Nc1ccc(-n2nc(C(F)(F)F)cc2C2CC2)cc1 [Example 52, N-{4-[5-cyclopropyl-3-(trifluoromethyl)-1H-pyrazol-1-yl]phenyl}-4-methyl-1,2,3-thiadiazole-5-carboxamide] | 100 | 34 | inhibition at 1 µM (CRAC channels [2]): 78.2%
Cc1nc(C)c(C(=O)Nc2ccc(-n3nc(C(F)(F)F)cc3C3CC3)cc2)s1 [Example 55, N-{4-[5-cyclopropyl-3-(trifluoromethyl)-1H-pyrazol-1-yl]phenyl}-2,4-dimethylthiazole-5-carboxamide] | 100 |  | inhibition at 1 µM (CRAC channels [2]): 100%; IC50 [3]: 613 nM
Cc1oncc1C(=O)Nc1ccc(-n2nc(C(F)(F)F)cc2C2CC2)cc1 [Example 56, N-{4-[5-cyclopropyl-3-(trifluoromethyl)-1H-pyrazol-1-yl]phenyl}-5-methylisoxazole-4-carboxamide] | 100 |  | IC50 (IL-2 [4]): 78.4 nM
Cc1ncsc1NC(=O)c1ccc(-n2nc(C(F)(F)F)cc2C2CC2)cc1 [Example 78, 4-[5-cyclopropyl-3-(trifluoromethyl)-1H-pyrazol-1-yl]-N-(4-methylthiazol-5-yl)benzamide] | 100 |  | IC50 (IL-2 [4]): 34.7 nM; IC50 (IL-2 [5]): 149 nM
Cc1nnsc1C(=O)Nc1ccc(-n2nc(C(F)(F)F)cc2C2CC2)c(F)c1 [Example 82, N-{4-[5-cyclopropyl-3-(trifluoromethyl)-1H-pyrazol-1-yl]-3-fluorophenyl}-4-methyl-1,2,3-thiadiazole-5-carboxamide] | 100 |  | IC50 (IL-2 [4]): 38.2 nM; IC50 (IL-2 [5]): 24.6 nM
O=C(Nc1ccc(-n2nc(C(F)(F)F)cc2C2CC2)c(F)c1)c1ccncc1 [Example 90, N-{4-[5-cyclopropyl-3-(trifluoromethyl)-1H-pyrazol-1-yl]-3-fluorophenyl}isonicotinamide hydrochloride] | 100 | 90.7 | IC50 [3]: 305 nM
O=C(Nc1ccc(-n2nc(C(F)(F)F)cc2C2CC2)c(F)c1)c1ccncc1F [Example 91, N-{4-[5-cyclopropyl-3-(trifluoromethyl)-1H-pyrazol-1-yl]-3-fluorophenyl}-3-fluoroisonicotinamide] | 100 | 92.7 | IC50 [3]: 1360 nM
O=C(Nc1ccc(-n2nc(C(F)(F)F)cc2C2CC2)c(F)c1)c1c(Cl)cncc1Cl [Example 92, 3,5-dichloro-N-{4-[5-cyclopropyl-3-(trifluoromethyl)-1H-pyrazol-1-yl]-3-fluorophenyl}isonicotinamide] | 95.8 | 100 | 
O=C(Nc1ccc(-n2nc(C(F)(F)F)cc2C2CC2)nc1)c1cccnc1 [Example 111, N-{6-[5-cyclopropyl-3-(trifluoromethyl)-1H-pyrazol-1-yl]pyridin-3-yl}nicotinamide hydrochloride] | 100 |  | IC50 (IL-2 [4]): 82.8 nM
Cc1ncncc1C(=O)Nc1cc(F)c(-n2nc(C(F)(F)F)cc2C2CC2)c(F)c1 [Example 130, N-{4-[5-cyclopropyl-3-(trifluoromethyl)-1H-pyrazol-1-yl]-3,5-difluorophenyl}-4-methylpyrimidine-5-carboxamide] | 5.31 |  | 
O=C(Nc1ccc(-n2nc(C(F)(F)F)cc2C2CC2)c(F)c1)C1(c2ccccc2)CCC1 [Example 131, N-{4-[5-cyclopropyl-3-(trifluoromethyl)-1H-pyrazol-1-yl]-3-fluorophenyl}-1-phenylcyclobutanecarboxamide] | 0 |  | 
Cc1ncoc1C(=O)Nc1ccc(-n2nc(C(F)(F)F)cc2C2CC2)c(F)c1 [Example 132, N-{4-[5-cyclopropyl-3-(trifluoromethyl)-1H-pyrazol-1-yl]-3-fluorophenyl}-4-methyloxazole-5-carboxamide] | 85.2 |  | 
Cc1ncncc1C(=O)Nc1cnc(-n2nc(C(F)(F)F)cc2C2CC2)nc1 [Example 133, N-{2-[5-cyclopropyl-3-(trifluoromethyl)-1H-pyrazol-1-yl]pyrimidin-5-yl}-4-methylpyrimidine-5-carboxamide] | 5.62 |  | 
Cc1ncncc1NC(=O)c1ccc(-n2nc(C(F)(F)F)cc2C2CC2)c(F)c1 [Example 134, 4-[5-cyclopropyl-3-(trifluoromethyl)-1H-pyrazol-1-yl]-3-fluoro-N-(4-methylpyrimidin-5-yl)benzamide] | 18.6 |  | 
N-{4-[3-cyclopropyl-5-(difluoromethyl)-1H-pyrazol-1-yl]-3-fluorophenyl}-2,6-difluorobenzamide and N-{4-[5-cyclopropyl-3-(difluoromethyl)-1H-pyrazol-1-yl]-3-fluorophenyl}-2,6-difluorobenzamide [Example 135] |  |  | % inhibition (1 uM) (CRAC channels [1]): 100%
